In patent US11479551B2, “MTA-cooperative PRMT5 inhibitors” (Mirati Therapeutics, Inc., priority 2019, dated 2022):
Read-outs that look alike come from different tables or passages of the source.

How the values were obtained:
[1] = tested on: HCT116 homozygous MTAP knockout cells; assay: Proliferation assay (CellTiter-Glo, 10 days of treatment), HCT116 MTAP knockout; assay type: cell-based; conditions: Homo sapiens, HCT-116, 240 h, read-out: Proliferation HCT116MTAP_KO IC50
Method in brief: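 Cells (250/well) seeded in McCoy's 5A with 10% FBS, then treated the next day with a PRMT5 inhibitor dose response at 37 °C, 5% CO2. On day 6 they were split 1:10 into fresh medium with the same compound concentration. CellTiter-Glo viability was read on day 11 and IC50 taken after 10 days of treatment.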

HCT116 parental cells = assay: Proliferation assay (CellTiter-Glo, 10 days of treatment), HCT116 parental; assay type: cell-based; conditions: Homo sapiens, HCT-116, 240 h
Experimental: Control samples were analyzed in parallel.
Briefly, on Day 0, 250 HCT116 parental or HCT116 homozygous MTAP knockout cell were seeded in 96 well plates in McCoy's 5A supplemented with 10% fetal bovine serum and pen/strep and the cells were incubated overnight at 37° C. plus 5% CO2.
The following day, cells were treated with DMSO vehicle control or a dose response of PRMT5 inhibitors and incubated at 37 C plus 5% CO2 for five days. On Day 6, the cells were trypsinized and split 1:10 into new 96-well plates with fresh medium containing the same concentration of PRMT5 inhibitor and incubated for an additional 5 days at 37° C. plus 5% CO^2.
On Day 11, the viability of the cells was measured using a CTG assay kit (CellTiter-Glo; Promega cat.no G7573) in accordance with the manufacturer's instructions. The IC50 values for each compound after 10 days of treatment were calculated using GraphPad PRISM software.

[2] = tested on: PRMT5-dependent Symmetric Di-methyl Arginine signal in HCT116 homozygous MTAP knockout cells; assay: SYM11 In-Cell Western, HCT116 MTAP knockout; assay type: cell-based; conditions: Homo sapiens, HCT-116, 96 h, HCT116 homozygous MTAP knockout cells, 4 days of treatment, SYM11/DRAQ5 ratio; read-out: In-cell-Western (SYM11) HCT116 MTAP_KO IC50
[3] = tested on: PRMT5-dependent Symmetric Di-methyl Arginine signal in HCT116 parental cells; assay: SYM11 In-Cell Western, HCT116 parental; assay type: cell-based; conditions: Homo sapiens, HCT-116, 96 h, 4 days of treatment, SYM11/DRAQ5 ratio
Method in brief: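 HCT116 parental cells (2,000/well, McCoy's 5A with 10% FBS) dosed with PRMT5 inhibitors for four days at 37° C. Fixed in paraformaldehyde and methanol, then stained with SYM11 antibody and DRAQ5.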

PRMT5/MEP50 complex = PRMT5/MEP50 complex (Homo sapiens (Human), UniProt O14744); assay: PRMT5:MEP50 HotSpot Assay (full-length histone H2A substrate, plus and minus MTA); assay type: biochemical
Chain of PRMT5/MEP50 complex (O14744 2-637): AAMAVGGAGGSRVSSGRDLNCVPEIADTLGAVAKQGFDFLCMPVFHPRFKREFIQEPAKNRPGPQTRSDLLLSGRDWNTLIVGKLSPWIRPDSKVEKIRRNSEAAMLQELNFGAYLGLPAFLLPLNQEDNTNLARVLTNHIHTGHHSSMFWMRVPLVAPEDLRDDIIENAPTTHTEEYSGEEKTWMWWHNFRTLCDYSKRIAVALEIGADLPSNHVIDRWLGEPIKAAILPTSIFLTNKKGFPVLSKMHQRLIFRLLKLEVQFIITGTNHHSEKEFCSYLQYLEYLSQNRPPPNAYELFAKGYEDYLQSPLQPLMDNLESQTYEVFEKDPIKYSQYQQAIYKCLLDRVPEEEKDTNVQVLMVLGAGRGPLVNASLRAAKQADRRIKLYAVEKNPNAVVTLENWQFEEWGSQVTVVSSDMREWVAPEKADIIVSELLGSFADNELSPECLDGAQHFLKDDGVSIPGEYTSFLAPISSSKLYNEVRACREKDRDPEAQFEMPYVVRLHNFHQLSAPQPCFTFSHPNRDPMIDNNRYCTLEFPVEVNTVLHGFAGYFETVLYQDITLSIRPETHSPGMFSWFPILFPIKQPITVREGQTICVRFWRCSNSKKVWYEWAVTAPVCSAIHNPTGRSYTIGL
Chain of PRMT5/MEP50 complex (Q9BQA1 2-342 partner): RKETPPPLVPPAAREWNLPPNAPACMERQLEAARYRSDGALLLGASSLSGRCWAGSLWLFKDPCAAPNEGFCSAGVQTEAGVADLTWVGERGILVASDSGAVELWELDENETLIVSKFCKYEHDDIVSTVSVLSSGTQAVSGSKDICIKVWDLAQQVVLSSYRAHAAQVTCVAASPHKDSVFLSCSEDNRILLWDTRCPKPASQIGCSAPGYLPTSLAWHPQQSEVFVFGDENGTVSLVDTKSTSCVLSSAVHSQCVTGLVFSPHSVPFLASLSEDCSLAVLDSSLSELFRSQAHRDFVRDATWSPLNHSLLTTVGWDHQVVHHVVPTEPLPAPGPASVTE
Method in brief: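 Radiometric filter-binding format using recombinant full-length histone H2A as substrate. After the reaction was stopped, mixtures went onto filter paper and tritiated H2A was quantified by scintillation counting.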

[4] = IC50 + 2 μM MTA, in the presence of 2 μM MTA

Row | SMILES | IC50 [1] [µM] | IC50 (HCT116 parental cells) [µM] | IC50 [2] [µM] | IC50 [3] [µM] | IC50 (PRMT5/MEP50 complex; [4]) [µM] | IC50 (PRMT5/MEP50 complex; in the absence of MTA, read-out: IC50) [µM]
1 | Cn1ncc(-c2ccc3c(=O)[nH]nc(CN)c3c2)c1-c1ccc(Cl)c(Cl)c1 [Example 4-140, 4-(aminomethyl)-6-(5-(3,4-dichlorophenyl)-1-methyl-1H-pyrazol-4-yl)phthalazin-1(2H)-one] | 3.87 | 6.81 | 0.047 | > 10 | 1.1 | 
2 | Cn1ncc(-c2ccc3c(=O)[nH]nc(CN)c3c2)c1-c1cc(Cl)cc(Cl)c1 [Example 4-141, 4-(aminomethyl)-6-(5-(3,5-dichlorophenyl)-1-methyl-1H-pyrazol-4-yl)phthalazin-1(2H)-one] | 2.09 | 5.5 | 0.088 | 4.96 | 0.794 | 
3 | Cn1ncc(-c2ccc3c(=O)[nH]nc(CN)c3c2)c1-c1ccccc1F [Example 4-142, 4-(aminomethyl)-6-(5-(2-fluorophenyl)-1-methyl-1H-pyrazol-4-yl)phthalazin-1(2H)-one] | 1.78 | 5.74 | 0.049 | 6.27 | 0.881 | 
4 | CCOc1ccc(-c2c(-c3ccc4c(=O)[nH]nc(CN)c4c3)cnn2C)cc1C#N [Example 4-145, 5-(4-(4-(aminomethyl)-1-oxo-1,2-dihydrophthalazin-6-yl)-1-methyl-1H-pyrazol-5-yl)-2-ethoxybenzonitrile] | 2.16 | 3.77 | 0.19 | 5.49 | 0.873 | 
5 | CCOc1cccc(-c2c(-c3ccc4c(=O)[nH]nc(CN)c4c3)cnn2C)c1C#N [Example 4-146, 2-(4-(4-(aminomethyl)-1-oxo-1,2-dihydrophthalazin-6-yl)-1-methyl-1H-pyrazol-5-yl)-6-ethoxybenzonitrile] | 0.261 | > 10 | 0.04 | 6.69 | 0.569 | 
6 | Cn1ncc(-c2ccc3c(=O)[nH]nc(CN)c3c2)c1-c1ccc2ccccc2c1C#N [Example 4-147, 2-(4-(4-(aminomethyl)-1-oxo-1,2-dihydrophthalazin-6-yl)-1-methyl-1H-pyrazol-5-yl)-1-naphthonitrile] | 0.05 | 1.91 | 0.011 | 1.26 | 0.043 | 0.28
7 | Cn1ncc(-c2ccc3c(=O)[nH]nc(CN)c3c2)c1-c1ccc(Cl)c(Cl)c1C#N [Example 4-148, 6-(4-(4-(aminomethyl)-1-oxo-1,2-dihydrophthalazin-6-yl)-1-methyl-1H-pyrazol-5-yl)-2,3-dichlorobenzonitrile] | 0.307 | 7.75 | 0.03 | 8.55 | 0.229 | 
8 | Cn1ncc(-c2ccc3c(=O)[nH]nc(CN)c3c2)c1-c1ccc2ncccc2c1C#N [Example 4-149, 6-(4-(4-(aminomethyl)-1-oxo-1,2-dihydrophthalazin-6-yl)-1-methyl-1H-pyrazol-5-yl)quinoline-5-carbonitrile] | 0.359 | > 10 | 0.135 | 6.35 | 0.282 | 
9 | Cc1cc(Cl)c(C#N)c(-c2c(-c3ccc4c(=O)[nH]nc(CN)c4c3)cnn2C)c1 [Example 4-150, 2-(4-(4-(aminomethyl)-1-oxo-1,2-dihydrophthalazin-6-yl)-1-methyl-1H-pyrazol-5-yl)-6-chloro-4-methylbenzonitrile] | 0.661 | > 10 | 0.018 | 8.39 | 0.673 | 
10 | Cc1ccc(-c2c(-c3ccc4c(=O)[nH]nc(CN)c4c3)cnn2C)c(C#N)c1Cl [Example 4-151, 2-(4-(4-(aminomethyl)-1-oxo-1,2-dihydrophthalazin-6-yl)-1-methyl-1H-pyrazol-5-yl)-6-chloro-5-methylbenzonitrile] | 0.504 | > 10 | 0.051 | 5.81 | 0.606 | 
11 | COc1ccc(-c2c(-c3ccc4c(=O)[nH]nc(CN)c4c3)cnn2C)c(C#N)c1 [Example 4-160, 2-(4-(4-(aminomethyl)-1-oxo-1,2-dihydrophthalazin-6-yl)-1-methyl-1H-pyrazol-5-yl)-5-methoxybenzonitrile] | 2.03 | 7.7 | 0.944 | > 10 | 1.11 | 
12 | Cn1ncc(-c2ccc3c(=O)[nH]nc(CN)c3c2)c1-c1cc(C2CC2)ccc1C#N [Example 4-161, 2-(4-(4-(aminomethyl)-1-oxo-1,2-dihydrophthalazin-6-yl)-1-methyl-1H-pyrazol-5-yl)-4-cyclopropylbenzonitrile] | 0.617 | 6.71 | 0.0875 | 6.56 | 0.707 | 
13 | N#Cc1ccccc1-c1c[nH]c2ncc(-c3ccc4c(=O)[nH]nc(CN)c4c3)cc12 [Example 4-163, 2-(5-(4-(aminomethyl)-1-oxo-1,2-dihydrophthalazin-6-yl)-1H-pyrrolo[2,3-b]pyridin-3-yl)benzonitrile] | > 10 | > 10 | > 3.33 | > 3.33 | 3.82 | 
14 | Cn1ncc(-c2ccc3c(=O)[nH]nc(CN)c3c2)c1-c1cc(Cl)c(Cl)cc1C#N [Example 4-164, 2-(4-(4-(aminomethyl)-1-oxo-1,2-dihydrophthalazin-6-yl)-1-methyl-1H-pyrazol-5-yl)-4,5-dichlorobenzonitrile] | 0.583 | > 10 | 0.0933 | > 10 | 0.464 | 
15 | COc1cc(Cl)c(C#N)c(-c2c(-c3ccc4c(=O)[nH]nc(CN)c4c3)cnn2C)c1 [Example 4-169, 2-(4-(4-(aminomethyl)-1-oxo-1,2-dihydrophthalazin-6-yl)-1-methyl-1H-pyrazol-5-yl)-6-chloro-4-methoxybenzonitrile] | 0.294 | > 10 | 0.0355 | 4.52 | 1.35 | 
16 | Cc1cc(Cl)cc(-c2c(-c3ccc4c(=O)[nH]nc(CN)c4c3)cnn2C)c1C#N [Example 4-180, 2-(4-(4-(aminomethyl)-1-oxo-1,2-dihydrophthalazin-6-yl)-1-methyl-1H-pyrazol-5-yl)-4-chloro-6-methylbenzonitrile] | 7.11 | 0.121 | 0.0319 | 1.41 | 0.597 | 
17 | Cn1ncc(-c2ccc3c(=O)[nH]nc(CN)c3c2)c1-c1ccc2ccccc2n1 [Example 4-182, 4-(aminomethyl)-6-(1-methyl-5-(quinolin-2-yl)-1H-pyrazol-4-yl)phthalazin-1(2H)-one] | 0.572 | 7.25 | 0.058 | > 1 | 1.42 | 
18 | Cn1ncc(-c2ccc3c(=O)[nH]nc(CN)c3c2)c1-c1ccc2c(Cl)cccc2c1C#N [Example 4-184, 2-(4-(4-(aminomethyl)-1-oxo-1,2-dihydrophthalazin-6-yl)-1-methyl-1H-pyrazol-5-yl)-5-chloro-1-naphthonitrile] | 0.107 | 9.4 | 0.004 | > 10 | 0.127 | 
19 | Cn1ncc(-c2ccc3c(=O)[nH]nc(CN)c3c2)c1-c1cnn(Cc2ccccc2)c1Cl [Example 4-187, 4-(aminomethyl)-6-(1′-benzyl-5′-chloro-2-methyl-1′H,2H-[3,4′-bipyrazol]-4-yl)phthalazin-1(2H)-one] | 1.9 | 1.36 | 0.007 | 1 | 0.239 | 
20 | Cn1ncc(-c2ccc3c(=O)[nH]nc(CN)c3c2)c1-c1cc(Cl)cc(OC2CC2)c1C#N [Example 4-188, 2-(4-(4-(aminomethyl)-1-oxo-1,2-dihydrophthalazin-6-yl)-1-methyl-1H-pyrazol-5-yl)-4-chloro-6-cyclopropoxybenzonitrile] | 0.039 | 0.904 | 0.004 | > 10 | 0.099 | 
21 | CCCc1cccc(-c2c(-c3ccc4c(=O)[nH]nc(CN)c4c3)cnn2C)c1C#N [Example 4-189, 2-(4-(4-(aminomethyl)-1-oxo-1,2-dihydrophthalazin-6-yl)-1-methyl-1H-pyrazol-5-yl)-6-propylbenzonitrile] | 0.234 | > 10 | 0.031 | 1.83 | 0.656 | 
